Measured values from publication PMC10819888, “Benzimidazole-Based Derivatives as Apoptotic Antiproliferative Agents: Design, Synthesis, Docking, and Mechanistic Studies” (Molecules, 2024).

Target: EGFR (Homo sapiens, UniProt P00533)
Assay: EGFR inhibitory assay

EGFR, sequence (P00533 669-1210): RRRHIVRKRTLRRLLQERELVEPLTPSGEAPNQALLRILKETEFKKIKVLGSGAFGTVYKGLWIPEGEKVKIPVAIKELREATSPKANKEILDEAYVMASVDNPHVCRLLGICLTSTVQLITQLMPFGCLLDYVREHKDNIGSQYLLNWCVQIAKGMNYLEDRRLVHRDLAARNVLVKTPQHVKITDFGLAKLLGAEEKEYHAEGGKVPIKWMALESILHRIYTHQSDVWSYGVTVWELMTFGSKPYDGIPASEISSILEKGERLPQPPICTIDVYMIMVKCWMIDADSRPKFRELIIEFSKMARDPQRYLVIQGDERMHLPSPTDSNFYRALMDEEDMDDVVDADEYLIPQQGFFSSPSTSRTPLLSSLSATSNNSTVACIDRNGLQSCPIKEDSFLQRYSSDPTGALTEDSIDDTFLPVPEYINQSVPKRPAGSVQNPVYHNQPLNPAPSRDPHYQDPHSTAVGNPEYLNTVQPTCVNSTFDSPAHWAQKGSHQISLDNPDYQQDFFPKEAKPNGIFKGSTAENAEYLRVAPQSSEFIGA

Row | SMILES | IC50
1 | COc1cc(/C=N/NC(=O)c2ccc3[nH]c(-c4ccc(Cl)cc4)nc3c2)cc(OC)c1OC [Compound 4h, N′-(3,4,5-Trimethoxybenzylidene)-2-(4-chlorophenyl)-1H-benzimidazole-5 carbohydrazide] | 560 ± 50 nM
2 | O=C(NN=Cc1ccc(F)cc1)c1ccc2[nH]c(-c3ccc(Cl)cc3)nc2c1 [Compound 4d, N′-(4-Fluorobenzylidene)-2-(4-chlorophenyl)-1H-benzimidazole-5-carbohydrazide] | 680 ± 50 nM
